# In patent US11834496B2, “Composition of a drug carrier, pharmaceutical composition thereof, preparation method and use method thereof” (EOS BIOMATERIALS INC., priority 2020, dated 2023):
# Test: Drug release rate test of pharmaceutical composition (dialysis bag in PBS, HPLC)
# Assay type: physicochemical
# Details: 37° C.; for drug release rate: gentamicin 50 mg, 200 ml PBS
# Procedure: In this test, a total of 3 ml solutions of the first and second mixtures (the weight ratio of sodium alginate:tricalcium phosphate:methylcellulose:sodium hyaluronate:calcium chloride was 36:36:15:80:20) and 50 mg of gentamicin were mixed to prepare a pharmaceutical composition containing gentamicin to be an experimental group. Then, the pharmaceutical composition containing gentamicin was placed in a dialysis bag. At the same time, 50 mg of gentamicin was dissolved in 3 ml of water as a control group.
# Next, two 500 ml beaker were respectively added with 200 ml of phosphate buffered saline (PBS) solution. The prepared solutions of the experimental group and control group were respectively placed in dialysis bags, which were then placed in the PBS solutions. After that, the beakers, containing the dialysis bag and the PBS solution, were slightly shaken at 37° C. to allow the release of the drug from the dialysis bag to the PBS solution. In the drug release period, the PBS solution of the experimental and control groups are sampled at 15 minutes, 30 minutes, 45 minutes, 60 minutes, 75 minutes, 90 minutes, 105 minutes, 120 minutes, 150 minutes, 180 minutes, 1 day, 2 days, 3 days, 4 days, 5 days, 6 days, and 7 days, from the time start shaking. The sampled volume of the PBS solutions in beakers was 1 mL, and 1 mL of fresh PBS solution was added back to the sampled beakers. The concentrations of the gentamicin released in the PBS solution from the dialysis bag were analyzed by high performance liquid chromatography (HPLC).
substance,measurement,setting,value
gentamicin,cumulative release amount of the gentamicin released in the PBS solution,"PBS, in less than 30 hours",~100%
same,drug release rate,"within 180 hours, relative to experimental group",much faster
same,drug release rate,within the first 3 hours,much faster
